Results reported in patent US20100204202A1, “DRUG FOR ALLEVIATING MOTOR COMPLICATIONS OR PSYCHIATRIC SYMPTOMS OF PARKINSON'S DISEASE” (Asubio Pharma Co., Ltd., priority 2007, published 2010).
Structures can show the parent of a compound that is named as a salt.

How the values were obtained:
[1] = system: Parkinson's disease patients; assay: Clinical test of efficacy, safety and tolerability in patients with motor complications associated with Parkinson's disease; format: in vivo, human
Source text: The efficacy of SUN N4057 on motor complications accompanying levodopa therapy in Parkinson's disease patients was studied in randomized, double-blind, placebo-controlled, multicenter, international, preliminary study. The patients aged 40 to 85 years, having idiopathic Parkinson's disease fulfilling the United Kingdom Parkinson's Disease Society (UK PDS) brain bank diagnostic criteria, having a presumed or confirmed diagnosis of Parkinson's disease in Stages 2 to 4 on the Hoehn & Yahr classification scale when in an “off” state, having a diagnosis of Parkinson's disease for at least 5 years, and being on a stable regimen of levodopa (L-dopa)/carbidopa for 30 days prior to the administration of the tested drug were enrolled into the study.
After providing their informed consent, the subjects were screened in 9 to 22 days before scheduled date of start of administration. During the screening phase, the patients continued to take their usual regimen of antiparkinsonian drugs including combinations of levodopa and carbidopa or combined use of single drugs.
At the baseline (8±2 days before scheduled date of start of administration), the subjects returned to the clinic for a baseline assessment of motor fluctuations over an 8-hour period. They received the first morning dose of the patient's usual anti-Parkinson's disease drugs (including combination of levodopa and carbidopa or combined use of single drugs), and the 8 hour evaluation began approximately 1 hour after taking the initial treatment. Each hour for 8 hours, the patient were assessed and it was recorded whether the patient was in the “on” (without dyskinesia), “on with dyskinesia,” or “off” motor states. The Unified Parkinson's Disease Rating Scale (UPDRS) Part III and the Abnormal Involuntary Movement Scale AIMS were also completed each hour over the 8-hour observation period.
The subjects judged eligible after the screening and baseline evaluation were randomly assigned in a 3:1 ratio (3 active:1 placebo) to receive SUN N4057 or matching placebo. The subjects received continuous intravenous infusion of SUN N4057 (target plasma concentration of 30 ng/mL) or a placebo for 12 hours a day for 2 consecutive days. The dose regimen was selected to reach the target plasma concentration 1 hour after the start of administration and to be maintained for 11 hours. The mean dosage of SUN N4057 for the patients was 13.123 mg on day 1 and 9.550 mg on day 2.
On day 1, motor assessments (recording of “on” or “off” periods), the Unified Parkinson's Disease Rating Scale (UPDRS) Part III, and the Abnormal Involuntary Movement Scale (AIMS) were conducted immediately prior to dosing with regular antiparkinsonian medications. After the first morning dose of the regular antiparkinsonian medication was administered, intravenous infusion of SUN N4057 or placebo was started. For 8 hours from the start of infusion, motor assessments, including the UPDRS Part III, AIMS, and recording of “on” and “off” periods were to be completed hourly.

[2] = system: Parkinson's disease model rats; assay: Levodopa-induced striatal dopamine release and rotational behavior, brain microdialysis in Parkinson's disease model rats; format: in vivo, rat; conditions: for rotational behavior of the rats: 3 and 10 mg/kg i.p.
Method: For preparing Parkinson's disease model rats by unilateral nigrostriatal dopamine nerve destruction, Crl: CD (SD) male rats supplied by Charles River Japan (8 weeks old at start of test) were used. About 30 minutes before injection of 6-hydroxydopamine, the norepinephrine reuptake inhibitor desipramine (25 mg/kg) was intraperitoneally administered, then the rat head was fixed to a brain stereotaxic apparatus under anesthesia by intraperitoneal administration of pentobarbital (40 mg/kg). 6-hydroxydopamine (total amount 8 μg/4 μL) including ascorbic acid was dissolved in physiological saline, then was injected at two locations of the right medial forebrain bundle (at 1.8 mm posterior to the bregma, 2.0 mm right-lateral to the median line and 8.3 mm ventral to the surface of the skill and 4.5 mm to the rear from the bregma, 1.4 mm to the right from the midline, and a depth of 8.5 mm from the cranium) through a microinjection syringe at a flow rate of 1.0 μL/min over 4 minutes, then was allowed to stand for 5 minutes. To confirm the success of dopamine nerve destruction after about 3 weeks from the above surgery, the rotational behavior of the rats after subcutaneous administration of the dopamine receptor agonist apomorphine (0.05 mg/kg) was measured using a rotational behavior-measuring equipment (Rotameter 6ch System, Muromachi Kikai Co., Ltd.). Rats rotating over 100 times in the opposite direction to the injection in the one hour right after apomorphine administration were judged to have unilateral nigrastriatal dopamine nerve destruction and were used for the subsequent tests.
Furthermore, from about one week later, the rats were given repeated intraperitoneal administration of levodopa (25 mg/kg)+peripheral dopa-decarboxylase inhibitor benserazide (10 mg/kg) (hereinafter referred to as “repeated doses of levodopa”) (twice a day, from Monday to Friday) for 6 weeks.
For the brain microdialysis guide cannule insertion surgery, under anesthesia by pentobarbital (40 mg/kg intraperitoneal administration), the head of each rat was fixed on a brain stereotaxic apparatus, then a brain microdialysis guide cannule (Carnegie Medicin PC12 guide cannule) was inserted into the right striatum (0.5 mm in front of the bregma, 3.0 mm from the midline to the right, and 4.0 mm deep from the cranium) and dental cement was used to fix it to the rat skull. […] The obtained dialysate was immediately measured for dopamine concentration using a high performance liquid chromatography system with an electrochemical detector (LC-ECD). Further, every 30 minutes after levodopa administration, the number of rotations in 5 minutes to the side opposite to the 6-hydroxydopamine injection side was visually measured. […]

[3] = After administration (day 2), i.v. infusion 12 hours a day, n = 18

O=C1c2ccccc2OC=C(Cl)N1CCCCN1CC=C(c2ccccn2)CC1 [SUN N4057, 3-chloro-4,5-dihydro-4-{4-[4-(2-pyridyl)-1,2,3,6-tetrahydropyridin-1-yl]butyl}-1,4-benzoxazepin-5-one.dihydrochloride-dihydrate]
Percentage of off time [1, 3]: 9.7%
Percentage of on time with dyskinesia [1, 3]: 49.3%
Percentage of on time without dyskinesia [1, 3]: 41.0%
serious adverse events or deaths ([1]; clinical study): no serious adverse events or deaths were reported
decrease of the percentage of off time in the comparison with baseline ([1]; day 2 (9.7-20.8)): 11.1 points
increase of the percentage of on time without dyskinesia in the comparison with baseline ([1]; day 2 (41.0-18.8)): 22.2 points
percentage of responder (dyskinesia by AIMS improved in severity or suppressed to zero without prolongation of off time) ([1]; day 2, placebo 0%, p=0.02): 56%
UPDRS Part 3 decline in comparison with the baseline ([1]; day 2 of administration, placebo 0.9): 4.4 point
increase of the amount of striatal dopamine release due to levodopa ([2]; 3 and 10 mg/kg i.p. 20 minutes before levodopa 25 mg/kg, week 6 of repeated levodopa): inhibitory action
peak time of the amount of dopamine release ([2]; 3 and 10 mg/kg i.p. before levodopa): delayed
rotational behavior of the rats ([2]; 150 to 210 minutes after levodopa dosage): increase
rotational behavior of the rats ([2]; 30 minutes after levodopa administration): decreased
